From US6716437B1, “Topical composition and method for enhancing lipid barrier synthesis” (E-L Management Corporation, priority 1993, dated 2004)
Entries after “also recorded” stand apart in the source; their conditions may differ.

Tests used:
skin barrier = assay: Clinical study: skin barrier function by tape stripping and TEWL; format: in vivo, human; conditions: twice a day, volar forearm
Experimental: B. Effect of cafestol on skin barrier function. Ten healthy female subjects, between the ages of 25-45. with normal skin on their forearms are tested in this study. […] They acclimate in the environmental room at 40% relative humidity and 70° F. for 20 minutes before their baseline measurements are recorded. They are then randomly assigned to one of two treatment groups.
Group I (n=5) receives treatment containing cafestol at 0.1% to use on one arm and a placebo to use on the other arm. Group II (n+5) uses a treatment containing 0.2% cafestol palmitate on one arm and a treatment containing 0.1% cafestol acetate on the other arm. The subjects self-administer the treatment twice a day on the lower part of their volar forearms except on the day of testing.
A five cm by two cm are is marked using a template on the lower inner forearm and initial water evaporation measurements are taken in three separate spots approximately 1 cm apart in a row. Five cm of the cello-tape is placed on the skin in the outlined area, starting from the top and after one firm stroke in each direction is removed by gently pulling in a downward direction parallel to the skin. The procedure is repeated and water evaporation is measured after every five to ten strips until the barrier is broken, as indicated by a minimum water evaporation of 18 g/sq m hr on one of the three spots. The subjects' transepidermal water loss (TEWL) is monitored on the challenged sites after 1, 2 and 3 days in order to measure the ability of the skin to repair itself. After 5 and 10 days of product treatment, the above procedure is repeated under the same test conditions on an adjacent new site.
TEWL is measured with the Servo Med Evaporimeter, fitted with a chimney and gauze. The subjects are in a relaxed inclined position, and are not allowed to converse or get excited. TEWL is recorded automatically using the Dia-Stron computer program set at a 30 second data acquisition time and a 15 second plateau.
B. Barrier strength measurements. Barrier strength is evaluated by challenging the skin with tape stripping and measuring the water evaporation (WE). To describe the experimental data, curve fitting Linear Regression Analysis based on least-square method is performed on each individual's data and the number of tape strippings required to reach a WE of 18 g/sq m/hr is recorded for each visit. The number of tape strippings required to perturb the barrier is a measure of its strength.

Living skin models [1] = assay: Living skin models: ceramide/lipid production by HPTLC/TLC; format: cell-based
Experimental: A. Determination of cafestol activity. Living skin models (#1301) are obtained from Advanced Tissue Sciences and treated with cafestol acetate(Sigma)by addition of a stock solution prepared in cell culture medium in a dose-dependent manner from 0.01 mg/ml to 1.0 mg/ml, or in a time-dependent manner at 0.5 mg/ml for up to 7 days. All experiments are conducted with untreated controls. At each dose or time point, the skin models are homogenized and the lipids extracted with chloroform/methanol(2:1), taken to dryness, and resuspended in chloroform. Samples are chromatographed on HPTLC and their lipid composition visualized by degradative charring (Melnick et al., J. Invest. Dermatol 92:231-234, 1989)
B. Comparison of cafestol activity with coffee bean oil activity. To compare the lipid enhancing activity of cafestol with that of coffee bean oil, living skin models are treated over a period of five days with increasing amounts of cafestol acetate in a range from 0.01 mg/ml to 1.0 mg/ml. A parallel set of living skin squares is also tested with a sample of coffee bean oil (Robeco). At the end of the incubation period, each skin square is homogenized and its lipids extracted in chloroform/methanol (2:1). This is followed by TLC analysis. Ceramides are identified by degradative charring and comparison to ceramide standards. Densitometric analysis of the TLC plate is carried out with an Optimas Bioscan.

Living skin models [2] = assay: Histology of treated living skin models; format: cell-based; conditions: living skin squares, fixed, sectioned, hematoxylin/eosin
Experimental: C. Histology. To determine the histological effect of cafestol application to living skin, skin squares are treated as described above; at the end of the incubation period, samples are fixed, sectioned and stained with hematoxylin/eosin.

stratum corneum lipids = assay: Clinical study: ceramide levels on human skin by thin layer chromatography; format: in vivo
Experimental: A. Determination of cafestol activity on lipid production. […] A short clinical study, consisting of five subjects, is then carried out under the same conditions in order to test the ability of cafestol acetate to raise ceramide levels. At zero time, ethanol washes are performed in order to remove stratum corneum lipids from both arms. Cafestol acetate, prepared in ethanol at a concentration of 1 mg/ml, is applied twice a day with a pump spray to the right volar forearm. As a control, ethanol is applied at the corresponding site at the left arm. On day three, stratum corneum lipids are again removed and both zero time and day three lipids from both arms are evaluated by thin layer chromatography as described above.

## CCCCCCCCCCCCCCCC(=O)OC[C@@]1(O)C[C@@]23CC[C@@H]4c5ccoc5CC[C@@]4(C)[C@@H]2CC[C@@H]1C3 [cafestol palmitate]
Skin barrier; after 5 days of treatment
  increase in barrier strength (number of tape strippings to reach WE of 18 g/sq m/hr): 8%
Skin barrier; after 10 days of treatment
  increase in barrier strength (number of tape strippings to reach WE of 18 g/sq m/hr): 43%

## C[C@@]12CCc3occc3[C@H]1CC[C@@]13C[C@@H](CC[C@H]12)[C@@](O)(CO)C3 [cafestol]
Living skin models [1]; five days, 0.01 mg/ml to 1.0 mg/ml
  ceramide production, comparison with coffee bean oil (TLC, densitometric scan): dose-dependent increase in ceramide production
Living skin models [2]
  stratum corneum (histological analysis): clear increase in stratum corneum
Stratum corneum lipids; five subjects, 1 mg/ml in ethanol twice a day, volar forearm, day three
  ceramide I level: increased levels of ceramide I in four of the five subjects
Stratum corneum lipids; initial test, single individual, applied directly to skin over three days
  ceramide I level: elevated
Stratum corneum lipids; the subject without ceramide I increase, 1 mg/ml in ethanol twice a day, day three
  ceramide IV level: increase in ceramide IV

## CC(=O)OC[C@@]1(O)C[C@@]23CC[C@@H]4c5ccoc5CC[C@@]4(C)[C@@H]2CC[C@@H]1C3 [cafestol acetate]
Living skin models [1]; 0.01 mg/ml to 1.0 mg/ml
  ceramides as a function of dose (HPTLC): increase in ceramide production with increasing dosage; also recorded: selective increase in ceramides as a function of dose
Living skin models [1]; 0.5 mg/ml for up to 7 days
  ceramides as a function of time (HPTLC): presence of ceramides after only one day of application, reaching maximum concentrations after three days
Skin barrier; after 5 days of treatment
  increase in barrier strength (number of tape strippings to reach WE of 18 g/sq m/hr): 10%
Skin barrier; after 10 days of treatment
  increase in barrier strength (number of tape strippings to reach WE of 18 g/sq m/hr): 38%
